From patent publication US20220279826A1, “OFF-FLAVOR SUPPRESSING AGENT” (AJINOMOTO CO., INC., priority 2019, published 2022)

Tests used:
[1] = Sensory evaluation in granular pea protein (Experimental Example 15); conditions: Table 29
Description: Each compound shown in the following Table 29 was added to granular pea protein (manufactured by Roquette) so as to achieve the concentration (addition concentration) shown in the following Table 29 to prepare each evaluation sample.
Based on the following evaluation criteria, a panel of four experts determined by consensus the intensity of off-tastes (bitter taste, harsh taste, astringent taste) derived from pea protein in each evaluation sample, by comparison with granular pea protein without addition of any compound (negative control).

[2] = Sensory evaluation in soy protein aqueous solution (Experimental Example 13); conditions: Table 27
Description: Each compound shown in the following Table 27 was added to an aqueous solution prepared by dissolving powdered soy protein (4 parts by weight) in water (96 parts by weight) (hereinafter at times referred to as soy protein aqueous solution) so as to achieve the concentration (addition concentration) shown in the following Table 27 to prepare each evaluation sample. Here, the powdered soy protein manufactured by FUJI OIL CO., LTD. was used.
Based on the following evaluation criteria, a panel of four experts determined by consensus the intensity of off-tastes (bitter taste, harsh taste, astringent taste) derived from soy protein in each evaluation sample, by comparison with a soy protein aqueous solution without addition of any compound (negative control).

[3] = Sensory evaluation in 0.15 wt % catechin aqueous solution (Experimental Example 9); conditions: summary of Table 23
Description: Each compound shown in the following Table 23 was added to a 0.15 wt % catechin aqueous solution (an aqueous solution prepared by dissolving catechin (0.15 parts by weight) in ion exchange water (99.85 parts by weight)) so as to achieve the concentration (addition concentration) shown in the following Table 23 to prepare each evaluation sample.
Based on the following evaluation criteria, a panel of four experts determined by consensus the intensity of off-tastes (bitter taste, rough taste, harsh taste) derived from catechin in each evaluation sample, by comparison with a 0.15 wt % catechin aqueous solution without addition of any compound (negative control).

[4] = Sensory evaluation in 0.007 wt % sucralose aqueous solution (Experimental Example 11); conditions: Table 25
Description: Each compound shown in the following Table 25 was added to a 0.007 wt % sucralose aqueous solution (an aqueous solution prepared by dissolving sucralose (0.007 parts by weight) in water (99.993 parts by weight)) so as to achieve the concentration (addition concentration) shown in the following Table 25 to prepare each evaluation sample.
Based on the following evaluation criteria, a panel of three experts determined by consensus the intensity of off-tastes (bitter taste, harsh taste, metallic taste) derived from sucralose in each evaluation sample, by comparison with a 0.007 wt % sucralose aqueous solution without addition of any compound (negative control).

[5] = Sensory evaluation in soy protein hamburg steak (Experimental Example 17); conditions: Table 32
Description: Of the materials shown in the following Table 31, the materials of category 1 were first mixed, and the materials of category 2 were further mixed. The obtained mixture was formed into a circular shape of about 100 g per piece, and then baked at 180° C. for 2 minutes and 30 seconds for each of the front and back sides on an iron plate to produce a soy protein hamburg steak. Here, the granular soy protein manufactured by FUJI OIL CO., LTD. was used.
Each compound shown in the following Table 32 was added to soy protein hamburg steak so as to achieve the concentration (addition concentration) shown in the following Table 32 to prepare each evaluation sample.
Based on the following evaluation criteria, a panel of five experts determined by consensus the intensity of off-tastes (bitter taste, harsh taste, astringent taste) derived from soy protein in each evaluation sample, by comparison with soy protein hamburg steak without addition of any compound (negative control).

[6] = Sensory evaluation in granular soy protein (Experimental Example 14); conditions: text summary of Table 28
Description: Each compound shown in the following Table 28 was added to granular soy protein (manufactured by FUJI OIL CO., LTD.) so as to achieve the concentration (addition concentration) shown in the following Table 28 to prepare each evaluation sample.
Based on the following evaluation criteria, a panel of four experts determined by consensus the intensity of off-tastes (bitter taste, harsh taste, astringent taste) derived from soy protein in each evaluation sample, by comparison with granular soy protein without addition of any compound (negative control).

[7] = Sensory evaluation in 1 wt % methyl cellulose aqueous solution (Experimental Example 20); conditions: Table 35
Description: Each compound shown in the following Table 35 was added to a 1 wt % methyl cellulose aqueous solution (aqueous solution prepared by dissolving methyl cellulose (1 part by weight) in water (99 parts by weight)) so as to achieve the concentration (addition concentration) shown in the following Table 35 to prepare each evaluation sample. Here, the methyl cellulose manufactured by Unitec Foods Co., Ltd. was used.
Based on the following evaluation criteria, a panel of four experts determined by consensus the intensity of off-tastes (bitter taste, harsh taste, astringent taste) derived from methyl cellulose in each evaluation sample, by comparison with a 1 wt % methyl cellulose aqueous solution without addition of any compound (negative control).

[8] = Sensory evaluation in 0.06 wt % acesulfame potassium aqueous solution (Experimental Example 10); conditions: summary of Table 24
Description: Each compound shown in the following Table 24 was added to a 0.06 wt % acesulfame potassium aqueous solution (an aqueous solution prepared by dissolving acesulfame potassium (0.06 parts by weight) in water (99.94 parts by weight)) so as to achieve the concentration (addition concentration) shown in the following Table 24 to prepare each evaluation sample.
Based on the following evaluation criteria, a panel of four experts determined by consensus the intensity of off-tastes (bitter taste) derived from acesulfame potassium in each evaluation sample, by comparison with a 0.06 wt % acesulfame potassium aqueous solution without addition of any compound (negative control).

[9] = Sensory evaluation in stevia aqueous solution (Experimental Example 7); conditions: text summary of Table 21
Description: Each compound shown in the following Table 21 was added […] to an aqueous solution prepared by dissolving stevia (manufactured by PureCircle) ([…]) in ion exchange water (99.93 parts by weight) (hereinafter at times referred to as stevia aqueous solution) so as to achieve the concentration (addition concentration) shown in the following Table 21 to prepare each evaluation sample.
Based on the following evaluation criteria, a panel of four experts determined by consensus the intensity of off-tastes (bitter taste, harsh taste, metallic taste) derived from stevia in each evaluation sample, by comparison with a stevia aqueous solution without addition of any compound (negative control).

[10] = Sensory evaluation in pea protein aqueous solution (Experimental Example 8); conditions: text summary of Table 22
Description: Each compound shown in the following Table 22 was added to an aqueous solution prepared by dissolving powdered pea protein (6 parts by weight) and granulated sugar (4 parts by weight) in ion exchange water (90 parts by weight) (hereinafter at times referred to as pea protein aqueous solution) so as to achieve the concentration (addition concentration) shown in the following Table 22 to prepare each evaluation sample. Here, the powdered pea protein manufactured by Cosucra was used.
Based on the following evaluation criteria, a panel of four experts determined by consensus the intensity of off-tastes (bitter taste, harsh taste, astringent taste) derived from pea protein in each evaluation sample, by comparison with a pea protein aqueous solution without addition of any compound (negative control).

CC(=O)c1ccc(C)o1 [2-acetyl-5-methylfuran]
suppressed: intensity of off-tastes (bitter taste, harsh taste, astringent taste) derived from pea protein [1] | intensity of off-tastes (bitter taste, harsh taste, astringent taste) derived from soy protein [2] | intensity of off-tastes (bitter taste, rough taste, harsh taste) derived from catechin [3] | intensity of off-tastes (bitter taste, harsh taste, metallic taste) derived from sucralose [4] | intensity of off-tastes (bitter taste, harsh taste, astringent taste) derived from soy protein [5] | intensity of off-tastes (bitter taste, harsh taste, astringent taste) derived from soy protein [6] | intensity of off-tastes (bitter taste, harsh taste, astringent taste) derived from methyl cellulose [7] | intensity of off-tastes (bitter taste) derived from acesulfame potassium [8] | intensity of off-tastes (bitter taste, harsh taste, metallic taste) derived from stevia [9] | intensity of off-tastes (bitter taste, harsh taste, astringent taste) derived from pea protein [10]

CC(=O)c1ccco1 [2-acetylfuran]
suppressed: intensity of off-tastes (bitter taste, harsh taste, astringent taste) derived from pea protein [1] | intensity of off-tastes (bitter taste, harsh taste, astringent taste) derived from soy protein [2] | intensity of off-tastes (bitter taste, rough taste, harsh taste) derived from catechin [3] | intensity of off-tastes (bitter taste, harsh taste, metallic taste) derived from sucralose [4] | intensity of off-tastes (bitter taste, harsh taste, astringent taste) derived from soy protein [5] | intensity of off-tastes (bitter taste, harsh taste, astringent taste) derived from soy protein [6] | intensity of off-tastes (bitter taste, harsh taste, astringent taste) derived from methyl cellulose [7] | intensity of off-tastes (bitter taste) derived from acesulfame potassium [8] | intensity of off-tastes (bitter taste, harsh taste, metallic taste) derived from stevia [9] | intensity of off-tastes (bitter taste, harsh taste, astringent taste) derived from pea protein [10]

CC1OCCC1=O (stereo not drawn) [2-methyltetrahydrofuran-3-one]
suppressed: intensity of off-tastes (bitter taste, harsh taste, astringent taste) derived from pea protein [1] | intensity of off-tastes (bitter taste, harsh taste, astringent taste) derived from soy protein [2] | intensity of off-tastes (bitter taste, rough taste, harsh taste) derived from catechin [3] | intensity of off-tastes (bitter taste, harsh taste, metallic taste) derived from sucralose [4] | intensity of off-tastes (bitter taste, harsh taste, astringent taste) derived from soy protein [5] | intensity of off-tastes (bitter taste, harsh taste, astringent taste) derived from soy protein [6] | intensity of off-tastes (bitter taste, harsh taste, astringent taste) derived from methyl cellulose [7] | intensity of off-tastes (bitter taste) derived from acesulfame potassium [8] | intensity of off-tastes (bitter taste, harsh taste, metallic taste) derived from stevia [9] | intensity of off-tastes (bitter taste, harsh taste, astringent taste) derived from pea protein [10]

CC1=C(O)C(=O)CC1 [cyclotene]
suppressed: intensity of off-tastes (bitter taste, harsh taste, astringent taste) derived from pea protein [1] | intensity of off-tastes (bitter taste, harsh taste, astringent taste) derived from soy protein [2] | intensity of off-tastes (bitter taste, rough taste, harsh taste) derived from catechin [3] | intensity of off-tastes (bitter taste, harsh taste, metallic taste) derived from sucralose [4] | intensity of off-tastes (bitter taste, harsh taste, astringent taste) derived from soy protein [5] | intensity of off-tastes (bitter taste, harsh taste, astringent taste) derived from soy protein [6] | intensity of off-tastes (bitter taste, harsh taste, astringent taste) derived from methyl cellulose [7] | intensity of off-tastes (bitter taste) derived from acesulfame potassium [8] | intensity of off-tastes (bitter taste, harsh taste, metallic taste) derived from stevia [9] | intensity of off-tastes (bitter taste, harsh taste, astringent taste) derived from pea protein [10]

O=Cc1ccco1 [furfural, Furfural]
suppressed: intensity of off-tastes (bitter taste, harsh taste, astringent taste) derived from pea protein [1] | intensity of off-tastes (bitter taste, harsh taste, astringent taste) derived from soy protein [2] | intensity of off-tastes (bitter taste, rough taste, harsh taste) derived from catechin [3] | intensity of off-tastes (bitter taste, harsh taste, metallic taste) derived from sucralose [4] | intensity of off-tastes (bitter taste, harsh taste, astringent taste) derived from soy protein [5] | intensity of off-tastes (bitter taste, harsh taste, astringent taste) derived from soy protein [6] | intensity of off-tastes (bitter taste, harsh taste, astringent taste) derived from methyl cellulose [7] | intensity of off-tastes (bitter taste) derived from acesulfame potassium [8] | intensity of off-tastes (bitter taste, harsh taste, metallic taste) derived from stevia [9] | intensity of off-tastes (bitter taste, harsh taste, astringent taste) derived from pea protein [10]

CCC(=O)O [propionic acid]
suppressed: intensity of off-tastes (bitter taste, harsh taste, astringent taste) derived from pea protein [1] | intensity of off-tastes (bitter taste, harsh taste, astringent taste) derived from soy protein [2] | intensity of off-tastes (bitter taste, rough taste, harsh taste) derived from catechin [3] | intensity of off-tastes (bitter taste, harsh taste, metallic taste) derived from sucralose [4] | intensity of off-tastes (bitter taste, harsh taste, astringent taste) derived from soy protein [5] | intensity of off-tastes (bitter taste, harsh taste, astringent taste) derived from soy protein [6] | intensity of off-tastes (bitter taste, harsh taste, astringent taste) derived from methyl cellulose [7] | intensity of off-tastes (bitter taste) derived from acesulfame potassium [8] | intensity of off-tastes (bitter taste, harsh taste, metallic taste) derived from stevia [9] | intensity of off-tastes (bitter taste, harsh taste, astringent taste) derived from pea protein [10]
